Our source for the TGI values is PubChem BioAssay (NCI).

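Results reflect a 48-hour exposure of cells in 96-well plates to compound at five concentrations. At the TGI there is no net growth.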

Among the test systems are A549 NSCLC; OVCAR-5 ovarian; IGROV1 ovarian; SF-539 CNS; HOP-92 NSCLC; HS 578T breast; ACHN renal; SK-MEL-28 melanoma; PC-3 prostate; MALME-3M melanoma; NCI-H522 lung; UACC-257 melanoma; SK-OV-3 ovarian; MOLT-4 leukemia; HCT-116 colon; KM12 colon.
Common to all, as to assay: NCI-60 cell line screen, 48 h

`COc1ccc2c(c1OC)C(=O)O[C@@H]2[C@H]1c2c(cc3c(c2OC)OCO3)CCN1C`: the TGI in the assay on A549 NSCLC is over 100 µM; in the assay on OVCAR-5 ovarian, over 100 µM; in the assay with IGROV1 ovarian, over 100 µM; with SF-539 CNS, over 100 µM; with HOP-92 NSCLC, over 100 µM; in the assay on HS 578T breast it was 67.4 µM. For the same compound, the TGI was over 100 µM in the assay with ACHN renal; over 100 µM with SK-MEL-28 melanoma; over 100 µM in the assay on PC-3 prostate; 79.3 µM with MALME-3M melanoma; over 100 µM in the assay with NCI-H522 lung; over 100 µM in the assay on UACC-257 melanoma. Moreover, the TGI in the assay on SK-OV-3 ovarian, in the assay on MOLT-4 leukemia, with HCT-116 colon and in the assay with KM12 colon was over 100 µM throughout.
For the compound `N#Cc1c(-c2ccc([N+](=O)[O-])cc2)cc(-c2ccc(Nc3ccnc4cc(Cl)ccc34)cc2)nc1N`, the TGI in the assay with A549 NSCLC turned out to be 8.8 µM; with OVCAR-5 ovarian it was 45.6 µM; in the assay with IGROV1 ovarian it was 15 µM; with SF-539 CNS, 55.4 µM; in the assay on HOP-92 NSCLC it was 48.7 µM; in the assay on HS 578T breast, 29.9 µM. Further, the TGI with ACHN renal is over 72.6 µM; in the assay with SK-MEL-28 melanoma, over 100 µM; in the assay on PC-3 prostate, 37.4 µM; with MALME-3M melanoma, 39.9 µM; in the assay on NCI-H522 lung it was 11.2 µM; in the assay on UACC-257 melanoma, 62.3 µM. Moreover, the TGI in the assay with SK-OV-3 ovarian came to 52.5 µM; in the assay on MOLT-4 leukemia, 5.4 µM; in the assay with HCT-116 colon, 14.7 µM; with KM12 colon, 14.7 µM.
For `COc1cccc2cc(C(=O)NC34CC5CC(CC(C5)C3)C4)c(=N)oc12`, the TGI in the assay with A549 NSCLC is over 100 µM; with OVCAR-5 ovarian, over 100 µM; in the assay on IGROV1 ovarian, over 85.7 µM; in the assay with SF-539 CNS, over 56.1 µM; in the assay with HOP-92 NSCLC, over 55 µM; with HS 578T breast, over 96.7 µM. The TGI with ACHN renal is over 100 µM; in the assay on SK-MEL-28 melanoma, over 100 µM; in the assay with PC-3 prostate, over 100 µM; in the assay on MALME-3M melanoma, over 100 µM; in the assay on NCI-H522 lung, over 88.7 µM; in the assay with UACC-257 melanoma, over 100 µM. In addition, the TGI with SK-OV-3 ovarian is over 100 µM; in the assay with MOLT-4 leukemia it was 23.2 µM; in the assay on HCT-116 colon, over 100 µM; in the assay on KM12 colon, over 100 µM.
